Assay results taken from patent US12714711B2, “Salts of neuroceuticals and uses thereof” (priority 2020, dated 2026).
Converted amounts (≈) assume the structure as drawn. “Also recorded” adds a separate entry of the source. Read-outs that look alike come from different tables or passages of the source.

Assays:
[1] = for Rate of reduce olanzapine-induced hyperglycemia (%): fasting glucose
Description: The testing compounds were administered to mice either through intraperitoneal (i.p.) injection or oral gavage before analyzing blood glucose levels.
For the acute study, two cohorts of mice were used.
For repeated-dose study, mice were randomly assigned into five groups as listed below. • Group 1: Vehicle control • Group 2: Clz (3 mg/kg) • Group 3: Clz:NA 1:1 salt (4.13 mg/kg) • Group 4: Clz (10 mg/kg) • Group 5: Clz:NA 1:1 salt (13.77 mg/kg)
The night before blood glucose levels were measured, the mice were fasted. Blood glucose levels were measured with a portable glucose meter (Contour® Plus, Bayer AG, Leverkusen, Germany) After waiting for 60 min, the treatments indicated above were administered. FIG. 75 illustrates the experimental design of this study.
Two cohorts of mice were used in this study. In cohort 1, mice were randomly assigned into the five groups listed below: • Group 1: Vehicle control • Group 2: NA (3.94 mg/kg) • Group 3: Olz (10 mg/kg) • Group 4: Olz (10 mg/kg)+NA (3.94 mg/kg) • Group 5: Olz:NA 1:1 salt (13.94 mg/kg)
Dosing occurred 60 min prior to measuring blood glucose levels.
In cohort 2, mice were randomly assigned into the five groups listed below: • Group 1: Vehicle control • Group 2: Olz (5 mg/kg) • Group 3: Olz:NA 1:1 salt (6.97 mg/kg) • Group 4: Olz (10 mg/kg) • Group 5: Olz:NA 1:1 salt (13.94 mg/kg)
The night before the glucose tolerance test, the mice fasted. Blood glucose levels were measured in whole blood that was collected from the mouse's tail vein. Glucose levels were measured with a portable glucose meter (Contour® Plus, Bayer AG, Leverkusen, Germany), with the measurement occurring 60 min after the mice were dosed with the treatments indicated above Immediately following the glucose measurement, all mice were subjected to a glucose tolerance test, which involved an intraperitoneal challenge injection of 1 g/kg of glucose, followed by measuring blood glucose levels at 0, 30, 60 and 120 minutes.

in vivo = conditions: rat, po
Description: All animals used in this study were adult rats (at least 2.5 months of age).
Male Sprague-Dawley rats having a bodyweight between 250-300 g were randomly assigned to two groups. […] The chemicals were suspended in sesame oil and administrated by single oral gavage at 2 ml/kg. All rats were fasted overnight with free access to water before oral administration of the testing compositions. On the day of dosing, the blood samples were collected at 0 min (prior to dosing), and 0.25, 0.5, 1, 2, 4, 6, 8, and 24 hr post-dosing.
Blood samples were collected from rat jugular veins and transferred into tubes coated with sodium heparin. To obtain plasma, the blood samples were centrifuged at 2,500×g for 15 min at 4° C. and the supernatants were collected and kept frozen in a freezer at −80° C., until they were analyzed.
The plasma concentration of donepezil was determined by LC/MS. The chromatographic separation was carried out on a 5 μm EVO C8 100 Å LC column (100×4.6 mm, Kinetex®). The mobile phase was 0.1% formic acid in water and acetonitrile:methanol=8:2 set as gradient. Flow rate used was 0.3 mL/min. Column temperature was maintained at 40° C. and the injection volume was 30 μL.
The pharmacokinetic parameters were calculated using non-compartmental analysis (NCA) with WinNonlin to assess the systemic exposure of donepezil in rats.

MK-801 treated mice = experiment: Open field test, MK-801 induced hyper-locomotion; conditions: for locomotor activity in MK-801 treated mice: MK-801 0.2 mg/kg i.p.; for Open-field test effect (formula [formula] not readable): acute oral;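 as to all read-outs here: adult male C57BL/6J mice, locomotion counted as total photobeam breaks over 60 minutes in an open field photobeam activity system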
Description: All mice were tested with open field task.
In this study, the mice were placed in a Plexiglas cage (37.5 cm×21.5 cm×18 cm) under 50-65 lux light intensity. Their spontaneous locomotor activities were measured for 60 minutes using the Photobeam Activity System (PAS)-open field (San Diego Instruments, San Diego, Calif., USA). The total number of photo beam breaks of each mouse was measured as an index of locomotor activity.
The schizophrenia-like behavior, MK801-induced hyperactivity, were tested by open field task.
All mice were tested in an open field task.
The schizophrenia-like behavior, NMDA-hypofunction-induced hyperactivity, were tested by open field task.
The amount of paliperidone administered to Groups 3 and 4 was equal. The schizophrenia-like behavior, MK801-induced hyperactivity, were tested by open field task.
The amount of paliperidone administered to Groups 3 and 4 was equal. The schizophrenia-like behavior, NMDA-hypofunction-induced hyperactivity, were tested by open field task.

[2] = for blood glucose levels during glucose tolerance test compared to vehicle: mice
Description: For the acute study, mice were randomly assigned into one of the five groups listed below. • Group 1: Vehicle control • Group 2: NA (3.77 mg/kg) • Group 3: Clz (10 mg/kg) • Group 4: Clz (10 mg/kg)+NA (3.77 mg/kg) • Group 5: Clz:NA 1:1 salt (13.77 mg/kg)
For the repeated dose study, two cohorts of mice were used. In cohort 1, mice were randomly assigned into one of the three groups listed below. • Group 1: Vehicle control • Group 2: Clz (10 mg/kg) • Group 3: Clz:NA 1:1 salt (13.77 mg/kg)
In cohort 2, the mice were randomly assigned into one of the three groups listed below. • Group 1: Vehicle control • Group 2: Clz (3 mg/kg) • Group 3: Clz:NA 1:1 salt (4.13 mg/kg)
To assess glucose tolerance, mice were fasted overnight on day 18 (for cohort 1) and on day 35 (for cohort 2), and their blood glucose response to i.p. administration of glucose (2 g/kg) was determined. Blood glucose levels were assessed in the whole blood collected from the tail vein, 60 min after drug administration Immediately following this glucose measurement, all mice were subjected to a glucose tolerance test by receiving an intraperitoneal challenge injection of 2 g/kg of glucose, and blood glucose levels were measured at 0, 30, 60 and 120 minutes.
Mice used in this study were randomly assigned into one of the six following groups: • Group 1: Vehicle control • Group 2: Clz (10 mg/kg) • Group 3: Clz (10 mg/kg)+enriched TA (22.5 mg/kg) • Group 4: Clz (10 mg/kg)+enriched TA (11.3 mg/kg) • Group 5: Clz:enriched TA 2:1 salt (32.5 mg/kg) • Group 6: Clz:enriched TA 4:1 salt (21.3 mg/kg)
One day before the glucose tolerance test, the mice fasted overnight and the blood glucose levels were measured in whole blood collected from the tail vein. Glucose levels were measured using a portable glucose meter (Contour® Plus, Bayer AG, Leverkusen, Germany) 60 min after they were acutely administered with the treatments indicated above Immediately following this glucose measurement, all mice were subjected to a glucose tolerance test by receiving an intraperitoneal challenge injection of 2 g/kg of glucose. Blood glucose levels were measured at 30, 60 and 120 minutes.
Two cohorts of mice were used in this study. […]

[3] = Water solubility at 25° C.; conditions: for water solubility: 25° C.
[4] = Stress study at 40° C./75% relative humidity in a closed system, HPLC analysis; conditions: 40° C./75% RH, 30 days, in the presence of free benzoic acid
[5] = Carr Index (USP 1174), flowability; assay type: physicochemical

For `CN1CCN(C2=Nc3cc(Cl)ccc3Nc3ccccc32)CC1.O=C(O)c1cccnc1` [clozapine:nicotinic acid 1:1 salt], the “reduction of clozapine-induced hyperglycemia” value ([1]; mouse, in vivo, ip, 10 mg/kg) was 46.8%, the T1/2 (in vivo) was 3.2 ± 1.4 h and the Tmax (in vivo) was 0.8 h. The “AUC Increased (%)” value (in vivo; 60 mg/kg) was 161.8%, the “Recovery rate (%)” value (MK-801 treated mice; MK801 model, dosage of clozapine 1 mg/kg) was 86% and the “Recovery rate (%)” value (MK-801 treated mice; MK801 model, dosage of clozapine 2 mg/kg) was 100%.

With `Cc1cc2c(s1)Nc1ccccc1N=C2N1CCN(C)CC1.O=C(O)c1cccnc1` [olanzapine:nicotinic acid 1:1 salt] the “blood glucose levels during glucose tolerance test compared to vehicle” value ([2]; single i.p. dose, olanzapine 5 mg/kg or salt 6.97 mg/kg, glucose 1 g/kg i.p.) was “significantly higher than vehicle control group at 120 min after glucose challenge”, the “blood glucose levels during glucose tolerance test compared to vehicle” value ([2]; single i.p. dose, olanzapine 10 mg/kg or salt 13.94 mg/kg, glucose 1 g/kg i.p.) was “significantly higher than vehicle control group at 120 min after glucose challenge and remained lower than the olanzapine (10 mg/kg) group at all time points” and the “blood glucose levels during glucose tolerance test compared to vehicle” value ([2]; single oral dose, olanzapine 10 mg/kg, NA 3.94 mg/kg, mixture, or salt 13.94 mg/kg) was “high glucose levels only after 60 mins, before returning to normal glucose levels 120 min post glucose challenge”. For the same molecule, the “Rate of reduce olanzapine-induced hyperglycemia (%)” value ([1]; acute i.p., dosage of olanzapine 5 mg/kg) was 57.6%, the “Rate of reduce olanzapine-induced hyperglycemia (%)” value ([1]; acute i.p., dosage of olanzapine 10 mg/kg) was 38.4% and the “Rate of reduce olanzapine-induced hyperglycemia (%)” value ([1]; acute oral, dosage of olanzapine 10 mg/kg) was 50.5%. The “Recovery rate (%)” value (MK-801 treated mice; MK801-treated mice, dosage of olanzapine 0.1 mg/kg) was 47.9% and the “locomotor activity in MK-801 treated mice” value (from here on “locomotor activity”) (MK-801 treated mice; oral olanzapine 0.1 mg/kg or nicotinic acid salt 0.14 mg/kg) was “significant decrease in MK-801-induced hyper-locomotion”.

For `CN1CCN(C2=Nc3cc(Cl)ccc3Nc3ccccc32)CC1.O=C(O)c1ccccc1` [clozapine:benzoic acid 1:1 salt], the water solubility [3] was 1580 µg/mL, the “Degradation during the stress study (HPLC before vs after)” value [4] was “did not degrade; also recorded: more stable than clozapine” and the “Recovery rate (%)” value (MK-801 treated mice; MK801-treated mice, dosage of clozapine 1 mg/kg (benzoic acid salt study)) was 85.8%.

In the case of `Cc1nc2n(c(=O)c1CCN1CCC(c3noc4cc(F)ccc34)CC1)CCCC2O` (stereo not shown) [paliperidone, reference compound], the “Carr Index” value [5] is reported as 29%, the solubility ([3]; water, 25 °C) is reported as 290 µg/mL (≈ 680 µM) and the “Open-field test effect (formula [formula] not readable)” value (MK-801 treated mice; paliperidone 0.06 mg/kg (benzoic acid salt study)) is reported as 50.3%. For the same molecule, the “Open-field test effect (formula [formula] not readable)” value (MK-801 treated mice; paliperidone 0.06 mg/kg (nicotinic acid salt study)) was 50.3%, the “locomotor activity” value (MK-801 treated mice; oral paliperidone 0.06 mg/kg or benzoic acid salt 0.076 mg/kg) was “alleviates MK-801 induced hyperactivity” and the “locomotor activity” value (MK-801 treated mice; oral paliperidone 0.06 mg/kg or nicotinic acid 1:2 salt 0.094 mg/kg) was “alleviates MK-801 induced hyperactivity”.

For `O=C(O)c1cccnc1.OCCOCCN1CCN(C2=Nc3ccccc3Sc3ccccc32)CC1` [quetiapine:nicotinic acid 1:1 salt], the “Blood glucose level compared to vehicle after 120 min” value ([2]; GTT, dosage of quetiapine 20 mg/kg) was 1.00, the “Carr Index” value [5] was 20% and the water solubility [3] was 262000 µg/mL. For the same molecule, the “Open-field test effect (formula [formula] not readable)” value (MK-801 treated mice; quetiapine 10 mg/kg) was 53.1% and the “locomotor activity” value (MK-801 treated mice; oral quetiapine 10 mg/kg or nicotinic acid salt […]) was “significant decrease in locomotion activity, compared with quetiapine group”.
